Source: ChEMBL document CHEMBL3286163, “The pterocarpanquinone LQB-118 inhibits tumor cell proliferation by downregulation of c-Myc and cyclins D1 and B1 mRNA and upregulation of p21 cell cycle inhibitor expression” (Bioorg Med Chem, 2014)
≈ marks a conversion by molar mass, not a printed value. Calls of active or inactive are those of the source. The calls are words filed in the database; no cut-off is given here.

Tests used:
[1] = tested on: PC-3; test: Induction of apoptosis in human PC3 cells assessed as proportion of early apoptotic cells at 5 ug/ml after 48 hrs by annexin-V-FITC/propidium iodide staining based flow cytometry (reference value: 6.7 +/- 2%); type: functional
[2] = tested on: PC-3; test: Induction of apoptosis in human PC3 cells assessed as proportion of late apoptotic cells at 5 ug/ml after 48 hrs by annexin-V-FITC/propidium iodide staining based flow cytometry (reference value: 6.6 +/- 1.2%); type: functional
[3] = tested on: PC-3; test: Induction of apoptosis in human PC3 cells assessed as proportion of necrotic cells at 5 ug/ml after 48 hrs by annexin-V-FITC/propidium iodide staining based flow cytometry (reference value: 0.8 +/- 0.9%); type: functional
[4] = tested on: PC-3; test: Induction of apoptosis in human PC3 cells assessed as internucleosomal DNA fragmentation at 5 ug/ml after 48 hrs by agarose gel electrophoresis; type: functional, cell-based
[5] = tested on: PC-3; test: Increase in c-Myc mRNA expression in human PC3 cells after 48 hrs by RT-PCR analysis; type: functional
[6] = tested on: PC-3; test: Cytotoxicity against human PC3 cells assessed as inhibition of cell viability after 48 hrs by MTT assay; type: functional, cell-based; settings: for IC50: PC-3, 48 h
[7] = Cytotoxicity against human RWPE1 cells assessed as inhibition of cell viability after 48 hrs by MTT assay; type: cell-based, RWPE-1; settings: for IC50: Homo sapiens, RWPE-1, 48 h
[8] = tested on: LNCaP; test: Cytotoxicity against human LNCAP cells assessed as inhibition of cell viability after 48 hrs by MTT assay; type: functional, cell-based
[9] = tested on: PC-3; test: Cell cycle arrest in human PC3 cells assessed as cell accumulation at G1 phase at 1.7 ug/ml after 48 hrs by propidium idoide staining based flow cytometry (reference value: 68%); type: functional
[10] = tested on: PC-3; test: Cell cycle arrest in human PC3 cells assessed as cell accumulation at S phase at 1.7 ug/ml after 48 hrs by propidium idoide staining based flow cytometry (reference value: 9.8%); type: functional
[11] = tested on: PC-3; test: Cell cycle arrest in human PC3 cells assessed as cell accumulation at G2/M phase at 1.7 ug/ml after 48 hrs by propidium idoide staining based flow cytometry (reference value: 22.2%); type: functional
[12] = tested on: PC-3; test: Cell cycle arrest in human PC3 cells assessed as cell accumulation at G1 phase at 5 ug/ml after 48 hrs by propidium idoide staining based flow cytometry (reference value: 68%); type: functional
[13] = tested on: PC-3; test: Cell cycle arrest in human PC3 cells assessed as cell accumulation at S phase at 5 ug/ml after 48 hrs by propidium idoide staining based flow cytometry (reference value: 9.8%); type: functional
[14] = tested on: PC-3; test: Cell cycle arrest in human PC3 cells assessed as cell accumulation at G2/M phase at 5 ug/ml after 48 hrs by propidium idoide staining based flow cytometry (reference value: 22.2%); type: functional
[15] = tested on: PC-3; test: Decrease in cyclin D1 mRNA expression in human PC3 cells after 48 hrs by RT-PCR analysis; type: functional
[16] = tested on: PC-3; test: Decrease in cyclin B1 mRNA expression in human PC3 cells after 48 hrs by RT-PCR analysis; type: functional
[17] = tested on: PC-3; test: Increase in p21 protein expression in human PC3 cells at 5 ug/ml after 48 hrs by flow cytometry; type: functional, cell-based
[18] = tested on: PC-3; test: Increase in p21 mRNA expression in human PC3 cells at 5 ug/ml after 24 to 48 hrs by RT-PCR analysis; type: functional, cell-based
[19] = tested on: PC-3; test: Induction of apoptosis in human PC3 cells assessed as proportion of early apoptotic cells at 1.7 ug/ml after 48 hrs by annexin-V-FITC/propidium iodide staining based flow cytometry (reference value: 6.7 +/- 2%); type: functional
[20] = tested on: PC-3; test: Induction of apoptosis in human PC3 cells assessed as proportion of late apoptotic cells at 1.7 ug/ml after 48 hrs by annexin-V-FITC/propidium iodide staining based flow cytometry (reference value: 6.6 +/- 1.2%); type: functional
[21] = tested on: PC-3; test: Induction of apoptosis in human PC3 cells assessed as proportion of necrotic cells at 1.7 ug/ml after 48 hrs by annexin-V-FITC/propidium iodide staining based flow cytometry (reference value: 0.8 +/- 0.9%); type: functional
[22] = tested on: PC-3; test: Cytotoxicity against human PC3 cells assessed as inhibition of cell viability at 1 ug/ml after 48 hrs by MTT assay; type: functional; settings: PC-3, 48 h
[23] = tested on: PC-3; test: Cytotoxicity against human PC3 cells assessed as inhibition of cell viability at 10 ug/ml after 48 hrs by MTT assay; type: functional; settings: PC-3, 48 h
[24] = Cytotoxicity against human RWPE1 cells assessed as inhibition of cell viability at 2.5 ug/ml after 48 hrs by MTT assay; type: cell-based; settings: rwpe-1, 48 h
[25] = tested on: PC-3; test: Antiproliferative activity against human PC3 cells assessed as inhibition of cell growth at 1.7 ug/ml after 24 hrs by trypan blue dye exclusion assay; type: functional; settings: PC-3, 24 h, read-out: GI
[26] = tested on: PC-3; test: Antiproliferative activity against human PC3 cells assessed as inhibition of cell growth at 1.7 ug/ml after 48 hrs by trypan blue dye exclusion assay; type: functional; settings: PC-3, 48 h, read-out: GI
[27] = tested on: PC-3; test: Antiproliferative activity against human PC3 cells assessed as inhibition of cell growth at 1.7 ug/ml after 72 hrs by trypan blue dye exclusion assay; type: functional; settings: PC-3, 72 h, read-out: GI
[28] = tested on: PC-3; test: Antiproliferative activity against human PC3 cells assessed as inhibition of cell growth at 5 ug/ml after 24 hrs by trypan blue dye exclusion assay; type: functional; settings: PC-3, 24 h, read-out: GI
[29] = tested on: PC-3; test: Antiproliferative activity against human PC3 cells assessed as inhibition of cell growth at 5 ug/ml after 48 hrs by trypan blue dye exclusion assay; type: functional; settings: PC-3, 48 h, read-out: GI
[30] = tested on: PC-3; test: Antiproliferative activity against human PC3 cells assessed as inhibition of cell growth at 5 ug/ml after 72 hrs by trypan blue dye exclusion assay; type: functional; settings: PC-3, 72 h, read-out: GI
[31] = tested on: PC-3; test: Decrease in c-Myc mRNA expression in human PC3 cells after 48 hrs by RT-PCR analysis; type: functional
[32] = tested on: PC-3; test: Decrease in cyclin D1 mRNA expression in human PC3 cells after 24 hrs by RT-PCR analysis; type: functional
[33] = tested on: PC-3; test: Decrease in cyclin B1 mRNA expression in human PC3 cells after 24 hrs by RT-PCR analysis; type: functional
[34] = tested on: PC-3; test: Increase in p21 protein expression in human PC3 cells at 5 ug/ml after 24 to 48 hrs by flow cytometry; type: functional, cell-based
[35] = tested on: Thymocyte; test: Induction of apoptosis in mouse thymocytes assessed as internucleosomal DNA fragmentation at 1 uM after 24 hrs by agarose gel electrophoresis; type: functional, cell-based

Row | SMILES | Activity [1] [%] | Activity [2] [%] | Activity [3] [%] | Activity [4] | IC50 [6] [µg/mL] | IC50 [7] [µg/mL] | IC50 [8] [µg/mL] | Activity [9] [%] | Activity [10] [%] | Activity [11] [%] | Activity [12] [%] | Activity [13] [%] | Activity [14] [%] | inhibition (INH) [15] [%] | inhibition (INH) [16] [%] | Activity [18] | Activity [19] [%] | Activity [20] [%] | Activity [21] [%] | also measured
1 | CC(=O)O[C@H]1C(=O)[C@@]2(C)[C@H]([C@H](OC(=O)c3ccccc3)[C@]3(O)C[C@H](OC(=O)[C@H](O)[C@@H](NC(=O)c4ccccc4)c4ccccc4)C(C)=C1C3(C)C)[C@]1(OC(C)=O)CO[C@@H]1C[C@@H]2O [PACLITAXEL] | 18.1 | 18.4 | 1.9 | Active | 2.9 (≈ 3.4 µM) | 0.7 (≈ 0.82 µM) | 1.7 (≈ 1.99 µM) | 25 | 13 | 62 | 15 | 5.8 | 79.2 | 48 | 44 | Active | 21.1 | 14.7 | 0.6 | Activity [5]: 39%; Activity [17]: Active
2 | O=C1C2=C(C(=O)c3ccccc31)[C@H]1Oc3ccccc3[C@H]1CO2 [PTEROCARPANQUINONE] | 48.3 | 17.8 | 1.6 | Active | 1.7 (≈ 5.59 µM) | 1.3 (≈ 4.27 µM) | 1.1 (≈ 3.61 µM) | 51.8 | 13.2 | 35 | 34.1 | 22.5 | 43.4 | 59 | 43 | Active | 7.7 | 5.7 | 0.6 | inhibition [6]: Dose-dependent effect; inhibition (INH) ([7]; human, rwpe-1, 48 h): Dose-dependent effect; inhibition at 1 µg/mL [22]: 12.8%; inhibition at 10 µg/mL [23]: 92.7%; Activity [24]: Non-toxic; inhibition of growth at 1.7 µg/mL [25]: 60%; inhibition of growth at 1.7 µg/mL [26]: 68%; inhibition of growth at 1.7 µg/mL [27]: 60%; inhibition of growth at 5 µg/mL [28]: 78%; inhibition of growth at 5 µg/mL [29]: 88%; inhibition of growth at 5 µg/mL [30]: 93%; inhibition (INH) [31]: 60%; inhibition (INH) [32]: 27%; inhibition (INH) [33]: 58%; Activity [34]: Active
3 | C[C@@H]1C[C@H]2[C@@H]3CCC4=CC(=O)C=C[C@]4(C)[C@@]3(F)[C@@H](O)C[C@]2(C)[C@@]1(O)C(=O)CO | – | – | – | – | – | – | – | – | – | – | – | – | – | – | – | – | – | – | – | Activity [35]: Active
